Laboratory results published in article doi:10.1101/404459v1 (biorxiv, 2018).

B1: PfCLK1 (Plasmodium falciparum 3D7) (protein)
chain: DDEIVHFSWKKGMLLNNAFLVIRKMGDGTFGRVLLCQHIDNKKYYAVKVVRNIKKYTRSAKIEADILKKIQNDDINNNNIVKYHGKFMYYDHMCLIFEPLGPSLYEIITRNNYNGFHIEDIKLYCIEILKALNYLRKMSLTHTDLKPENILLDDPYFEKSLITVRRVTDGKKIQIYRTKSTGIKLIDFGCATFKSDYHGSIINTRQYRAPEVILNLGWDVSSDMWSFGCVLAELYTGSLLFRTHEHMEHLAMMESIIQPIPKNMLYEATKTNGSKYVNKDELKLAWPENASSINSIKHVKKCLPLYKIIKHELFCDFLYSILQIDPTLRPSPAELLKHKFLE

How the values were obtained:
[1] = biological target: PvCLK3; experiment: TR-FRET kinase assay; assay type: biochemical, Plasmodium vivax; details: recombinant kinase
[2] = biological target: T1, PbCLK3 (Plasmodium berghei, UniProt A0A509AKE9); experiment: TR-FRET kinase assay; assay type: biochemical; details: recombinant kinase
T1 sequence (A0A509AKE9 1-706): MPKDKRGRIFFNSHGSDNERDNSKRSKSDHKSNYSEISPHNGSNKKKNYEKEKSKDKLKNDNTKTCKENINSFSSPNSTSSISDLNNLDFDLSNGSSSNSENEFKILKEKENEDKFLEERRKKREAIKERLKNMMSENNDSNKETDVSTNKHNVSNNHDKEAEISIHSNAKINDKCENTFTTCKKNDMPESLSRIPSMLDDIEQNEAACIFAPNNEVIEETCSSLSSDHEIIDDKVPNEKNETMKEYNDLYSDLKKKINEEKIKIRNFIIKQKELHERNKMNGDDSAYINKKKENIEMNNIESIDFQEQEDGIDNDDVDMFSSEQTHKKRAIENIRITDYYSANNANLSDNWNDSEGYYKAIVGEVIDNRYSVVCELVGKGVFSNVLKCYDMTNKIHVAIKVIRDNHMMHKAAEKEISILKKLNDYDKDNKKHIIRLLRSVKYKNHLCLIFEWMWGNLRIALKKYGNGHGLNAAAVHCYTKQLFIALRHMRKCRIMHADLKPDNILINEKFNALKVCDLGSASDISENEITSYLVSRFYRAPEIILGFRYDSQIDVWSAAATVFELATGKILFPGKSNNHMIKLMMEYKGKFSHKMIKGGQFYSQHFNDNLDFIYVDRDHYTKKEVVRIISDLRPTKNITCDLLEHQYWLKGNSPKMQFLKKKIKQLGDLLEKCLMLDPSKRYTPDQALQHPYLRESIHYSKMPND

[3] = substrate: Nc1ncnc2c1ncn2[C@@H]1O[C@H](COP(=O)(O)OP(=O)(O)OP(=O)(O)O)[C@@H](O)[C@H]1O; experiment: purified protein; details: co-substrate ULight-CREBtide; pH […]; […] MgCl2; room temperature

| Molecule | pIC50 [1] | pIC50 [2] | Km [3] |
| --- | --- | --- | --- |
| CCN(CC)Cc1ccc(OC)c(-c2cc3c(-c4ccc(C(=O)O)c(C(C)C)c4)ccnc3[nH]2)c1 [TCMDC-135051] | 7.86 ± 0.10 | 7.47 ± 0.12 |  |
| B1 |  |  | 30 µM |
